We go through 8 compounds from BindingDB's records for doi:10.1016/s0960-894x(98)00730-6 (University At Stony Brook, 1999).

As a reminder, the IC50 is the midpoint of a concentration-inhibition curve. Higher therefore signals weaker potency in that assay.

Each structure is given as a SMILES string. Where a SMILES comes first, the peptide text is derived from it. [ ]: non-standard residue; d: D form. The star is where a group is joined. Biotinyl(3aR,4R,6aS) = O=C1N[C@@H]2[C@@H](CS[C@@H]2CCCCC(=O)*)N1; Phe(4-guanidino) = N=C(N)Nc1ccc(C[C@H](N)C(=O)O)cc1; Bpa = N[C@@H](Cc1ccc(C(=O)c2ccccc2)cc1)C(=O)O; X3 = O=C1N[C@@H]2CSC(CCCCC(=O)*)[C@@H]2N1; Phe(4-F) = N[C@@H](Cc1ccc(F)cc1)C(=O)O; X4 = O=C(c1ccccc1)c1ccc(CCC(=O)*)cc1; Orn = NCCC[C@H](N)C(=O)O; X1 = O=C(C=Cc1ccccc1)*; Propionyl = CCC(=O)*

This assay can be described thus: Human Thrombin receptor 1 (PAR-1) antagonistic ability to inhibit SFLLRN-NH2 (2.7 uM)-induced platelet aggregation.
For `N=C(N)NCCC[C@H](NC(=O)[C@H](Cc1ccc(C(=O)c2ccccc2)cc1)NC(=O)[C@H](Cc1ccc(N=C(N)N)cc1)NC(=O)[C@H](Cc1ccc(F)cc1)NC(=O)C=Cc1ccccc1)C(=O)N[C@@H](CCCNC(=O)CCCC[C@H]1SC[C@H]2NC(=O)N[C@H]21)C(=O)O` [(2S)-5-{5-[(3aR,4R,6aS)-2-oxo-hexahydro-1H-thieno[3,4-d]imidazolidin-4-yl]pentanamido}-2-[(2S)-2-[(2S)-3-(4-benzoylphenyl)-2-[(2S)-3-(4-carbamimidamidophenyl)-2-[(2S)-3-(4-fluorophenyl)-2-[(2E)-3-phenylprop-2-enamido]propanamido]propanamido]propanamido]-5-carbamimidamidopentanamido]pentanoic acid] (X1-[Phe(4-F)][Phe(4-guanidino)][Bpa]R[Orn](Biotinyl(3aR,4R,6aS))-OH), the IC50 was 3.4 µM.

As to `CC(C)C[C@H](NC(=O)[C@H](Cc1ccc(N=C(N)N)cc1)NC(=O)[C@H](Cc1ccc(F)cc1)NC(=O)C=Cc1ccccc1)C(=O)N[C@@H](Cc1ccc(C(=O)c2ccccc2)cc1)C(=O)N[C@@H](CCCNC(=O)CCCCC1SC[C@H]2NC(=O)N[C@@H]12)C(=O)O` (stereo partly drawn) [(2S)-5-{5-[(3aR,6aS)-2-oxo-hexahydro-1H-thieno[3,4-d]imidazolidin-4-yl]pentanamido}-2-[(2S)-3-(4-benzoylphenyl)-2-[(2S)-2-[(2S)-3-(4-carbamimidamidophenyl)-2-[(2S)-3-(4-fluorophenyl)-2-[(2E)-3-phenylprop-2-enamido]propanamido]propanamido]-4-methylpentanamido]propanamido]pentanoic acid] (X1-[Phe(4-F)][Phe(4-guanidino)]L[Bpa][Orn](X3)-OH), it took 9.7 µM to reach half-maximal inhibition (IC50). Under `CCC(=O)NCCC[C@H](NC(=O)[C@H](CCCNC(=N)N)NC(=O)[C@H](Cc1ccc(C(=O)c2ccccc2)cc1)NC(=O)[C@H](Cc1ccc(N=C(N)N)cc1)NC(=O)[C@H](Cc1ccc(F)cc1)NC(=O)C=Cc1ccccc1)C(=O)O` [(S)-2-((S)-2-{(S)-3-(4-Benzoyl-phenyl)-2-[(S)-2-{(S)-3-(4-fluoro-phenyl)-2-[(E)-(3-phenyl-acryloyl)amino]-propionylamino}-3-(4-guanidino-phenyl)-propionylamino]-propionylamino}-5-guanidino-pentanoylamino)-5-propionylamino-pentanoic acid] (X1-[Phe(4-F)][Phe(4-guanidino)][Bpa]R[Orn](Propionyl)-OH) stands 3.1 µM; under `CCC(=O)NCCC[C@H](NC(=O)[C@H](Cc1ccc(C(=O)c2ccccc2)cc1)NC(=O)[C@H](CC(C)C)NC(=O)[C@H](Cc1ccc(N=C(N)N)cc1)NC(=O)[C@H](Cc1ccc(F)cc1)NC(=O)C=Cc1ccccc1)C(=O)O` [(S)-2-((S)-3-(4-Benzoyl-phenyl)-2-{(S)-2-[(S)-2-{(S)-3-(4-fluoro-phenyl)-2-[(E)-(3-phenyl-acryloyl)amino]-propionylamino}-3-(4-guanidino-phenyl)-propionylamino]-4-methyl-pentanoylamino}-propionylamino)-5-propionylamino-pentanoic acid] (X1-[Phe(4-F)][Phe(4-guanidino)]L[Bpa][Orn](Propionyl)-OH), 9 µM.

The compound `CC(C)C[C@H](NC(=O)[C@H](Cc1ccc(N=C(N)N)cc1)NC(=O)[C@H](Cc1ccc(F)cc1)NC(=O)CCc1ccc(C(=O)c2ccccc2)cc1)C(=O)N[C@@H](CCCNC(=N)N)C(=O)O` [(S)-2-{(S)-2-[(S)-2-[(S)-2-[3-(4-Benzoyl-phenyl)-propionylamino]-3-(4-fluoro-phenyl)-propionylamino]-3-(4-guanidino-phenyl)-propionylamino]-4-methyl-pentanoylamino}-5-guanidino-pentanoic acid] (X4-[Phe(4-F)][Phe(4-guanidino)]LR-OH) had an IC50 of 3.1 µM.

Compound `CC(C)C[C@H](NC(=O)[C@H](Cc1ccc(N=C(N)N)cc1)NC(=O)[C@H](Cc1ccc(F)cc1)NC(=O)C=Cc1ccccc1)C(=O)N[C@@H](CCCNC(=N)N)C(=O)O` [(S)-2-{(S)-2-[(S)-2-{(S)-3-(4-Fluoro-phenyl)-2-[(E)-(3-phenyl-acryloyl)amino]-propionylamino}-3-(4-guanidino-phenyl)-propionylamino]-4-methyl-pentanoylamino}-5-guanidino-pentanoic acid] (X1-[Phe(4-F)][Phe(4-guanidino)]LR-OH) came in with an IC50 of 0.3 µM.

`N=C(N)NCCC[C@H](NC(=O)[C@H](Cc1ccc(C(=O)c2ccccc2)cc1)NC(=O)[C@H](Cc1ccc(N=C(N)N)cc1)NC(=O)[C@H](Cc1ccc(F)cc1)NC(=O)C=Cc1ccccc1)C(=O)O` [(S)-2-{(S)-3-(4-Benzoyl-phenyl)-2-[(S)-2-{(S)-3-(4-fluoro-phenyl)-2-[(E)-(3-phenyl-acryloyl)amino]-propionylamino}-3-(4-guanidino-phenyl)-propionylamino]-propionylamino}-5-guanidino-pentanoic acid] (X1-[Phe(4-F)][Phe(4-guanidino)][Bpa]R-OH): the IC50 stood at 6 µM. As to `CC(C)C[C@H](NC(=O)[C@H](Cc1ccc(N=C(N)N)cc1)NC(=O)[C@H](Cc1ccc(F)cc1)NC(=O)C=Cc1ccccc1)C(=O)N[C@@H](Cc1ccc(C(=O)c2ccccc2)cc1)C(=O)O` [(S)-3-(4-Benzoyl-phenyl)-2-{(S)-2-[(S)-2-{(S)-3-(4-fluoro-phenyl)-2-[(E)-(3-phenyl-acryloyl)amino]-propionylamino}-3-(4-guanidino-phenyl)-propionylamino]-4-methyl-pentanoylamino}-propionic acid] (X1-[Phe(4-F)][Phe(4-guanidino)]L[Bpa]-OH), the IC50 is 13 µM.
